Laboratory results published in PMC5226491, “Efficient therapeutic delivery by a novel cell-permeant peptide derived from KDM4A protein for antitumor and antifibrosis” (Oncotarget, 2016).

Experiments:
Caski cells = format: cell-based, human
Protocol: (§1) Intracellular fluorescence intensity quantification was measured using Multimode Microplate Reader (Tecan 2000; Tecan, Mannedorf, Switzerland). The intracellular uptake of FITC-labeled peptide was performed as described previously. Briefly, after the incubation, cells were washed and then lysed by adding 300 μl lysing buffer (0.1 M NaOH) for 10 min, the cell lysates were harvested and centrifuged (14000 g for 5 min), the supernatant was used to measure the fluorescence intensity. The fluorescence of cellular uptake is expressed as fluorescence intensity per mg of total cellular protein. All experiments were repeated at least three times and always performed in triplicate.

different cell lines [1] = test system: different cell lines
Protocol: Membrane integrity was assessed by lactate dehydrogenase (LDH) leakage into the culture medium. […] Cell-free supernatant was obtained and transferred to another 96-well-plate; substrate mixture was added to each well for another 10 min enzymatic reaction. Absorbance was measured at 560/590 nm using a Multiskan Spectrum plate-reader (Thermo, USA).

[2] = test system: primary cultured cells (mouse spleen lymphocytes, human peripheral blood lymphocytes, mouse primary fibroblast cells); assay: Uptake of FITC-labeled hPP10 in primary cultured cells; format: cell-based; conditions: mouse spleen lymphocytes and hPBMCs with 5% DMSO treatment
Protocol: The internalization of FITC conjugated hPP10 into cultured cells was observed using fluorescence microscopy. All types of cells were plated in 24-well-plates (Greiner, Germany) and cultivated to semi-confluence in RPMI-1640 medium in a CO2 incubator for 24 h at 37°C. Cells were washed with PBS, followed by 5.0 μM FITC-labeled peptide or fusion protein incubation with serum-free medium for 1 h at 37°C, the medium was removed, the cells were further washed with PBS 3 times, and then imaged using fluorescence microscope (Nikon, Japan) with a band-pass filter.

different cell lines [3] = test system: different cell lines; remark: listed apart in the source
Protocol: Cells were seeded in 96-well plates at 24 h before treatment. […] MTT solution (5 mg/mL) was added into fresh serum medium for further 4 h incubation. DMSO was used to solubilize formazan, and the absorbance was measured using a Multiskan Spectrum plate reader (Thermo, USA).

different cell lines [4] = assay: Uptake of FITC-labeled hPP10 in different cell lines; format: cell-based; conditions: for Effect of temperature on internalization: incubation at 4°C or 37°C, with or without DMSO
Protocol: as §1

Sequence	Fluorescence of cytosol compared with TAT-FITC (Caski cells)	Membrane disturbance, LDH release (different cell lines [1])	Permeation of primary cultured cells [2]	Cytotoxicity, MTT assay (different cell lines [3])	Permeation of cancerous or immortalized cell lines (different cell lines [4]; B16, ECV304, HepG2, T24, L929, HSC-T6, THP1, 5 μM FITC-labeled peptide, 1 h)	Duration of intracellular fluorescence (Caski cells)	Effect of heparin on cellular uptake (different cell lines [4]; co-incubated with 0.5 U/mL heparin, different cells)	Effect of serum on penetrating efficiency (different cell lines [4]; different cell lines, mean ± SD for 3 samples)	Effect of temperature on internalization (different cell lines [4])
KIPLPRFKLKCIFCKKRRKR [hPP10, human-derived penetrating peptide from KDM4A (aa 820–839)]	higher than TAT-FITC group	low membrane disturbance	able to permeate into primary cultured cells	minimal cytotoxicity	capable of permeating a wide variety of cancerous or immortalized cell lines	–	–	–	–
KIPLPRFKLKCIFCKKRRKR [hPP10-FITC, synthesized FITC-labeled hPP10 peptide]	–	–	–	–	–	long-lasting fluorescence than TAT-FITC	greatly decreased in the presence of heparin	decreased in the presence of serum	less energy-sensitive than that of TAT-FITC without DMSO treatment
YGRKKRRQ RRRK [TAT-FITC, FITC-labeled HIV-1 TAT peptide used for positive control, reference compound]	–	–	–	–	–	–	–	–	energy-dependent with or without DMSO treatment
